# Measured values from ChEMBL document CHEMBL1201862, “PubChem BioAssay data set” (2004).
# Structures can show the parent of a compound that is named as a salt.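 In this assay, cells in 96-well plates receive the compound at five concentrations for 48 hours. Endpoints are linearly interpolated between the surrounding concentrations. The concentration for 50% growth inhibition is given as GI50.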 Active and inactive are the calls of the source. Rule as the data show it: active = GI50 up to about 1.1 µM and inactive = higher.
# Experiments:
# Assay in all cases: DTP human tumour cell line panel, 48 h
# NCI-H522 = test system: NCI-H522
# HOP-92 = test system: HOP-92
# SF-295 = test system: SF-295
# A549 = test system: A549
# RXF 631 = test system: RXF 631
# M19-MEL = test system: M19-MEL
# HCT-116 = test system: HCT-116
# OVCAR-8 = test system: OVCAR-8
# SK-OV-3 = test system: SK-OV-3
# NCI-H460 = test system: NCI-H460
# NCI-H23 = test system: NCI-H23
# KM12 = test system: KM12
# M14 = test system: M14
# SNB-78 = test system: SNB-78
# UO-31 = test system: UO-31
# UACC-62 = test system: UACC-62
# SR = test system: SR
# RXF 393 = test system: RXF 393
# OVCAR-5 = test system: OVCAR-5
# SNB-19 = test system: SNB-19
# HL-60 = test system: HL-60
# IGROV-1 = test system: IGROV-1
# HT-29 = test system: HT-29
# U-251 = test system: U-251
# NCI-H226 = test system: NCI-H226
# CCRF-CEM = test system: CCRF-CEM
# MOLT-4 = test system: MOLT-4
# KM-20L2 = test system: KM-20L2
# A498 = test system: A498
# SK-MEL-28 = test system: SK-MEL-28
# TK-10 = test system: TK-10
# HOP-62 = test system: HOP-62
# UACC-257 = test system: UACC-257
# DMS-273 = test system: DMS-273
# HCT-15 = test system: HCT-15
# OVCAR-3 = test system: OVCAR-3
# XF498 = test system: XF498
# DLD-1 = test system: DLD-1
# HOP-18 = test system: HOP-18
# SF-268 = test system: SF-268
# SNB-75 = test system: SNB-75
# COLO 205 = test system: COLO 205
# ACHN = test system: ACHN
# EKVX = test system: EKVX
# LXFL 529 = test system: LXFL 529
# Malme-3M = test system: Malme-3M
# DMS-114 = test system: DMS-114
# T47D = test system: T47D
# SK-MEL-2 = test system: SK-MEL-2
# CAKI-1 = test system: CAKI-1
# OVCAR-4 = test system: OVCAR-4
# 786-0 = test system: 786-0
# SW-620 = test system: SW-620
# K562 = test system: K562
# SN12C = test system: SN12C
# HCC 2998 = test system: HCC 2998
# SF-539 = test system: SF-539
# LOX IMVI = test system: LOX IMVI
# SK-MEL-5 = test system: SK-MEL-5
# DU-145 = test system: DU-145
# MDA-MB-435 = test system: MDA-MB-435
# MCF7 = test system: MCF7
# PC-3 = test system: PC-3
# RPMI-8226 = test system: RPMI-8226
compound,measurement,setting,value
CCNC(CCCC(NCC)P(=O)(O)O)P(=O)(O)O (stereo unspecified),GI50,NCI-H522,> 100 µM (inactive)
same,GI50,HOP-92,> 100 µM (inactive)
same,GI50,SF-295,> 100 µM (inactive)
same,GI50,A549,> 100 µM (inactive)
same,GI50,RXF 631,> 100 µM (inactive)
same,GI50,M19-MEL,> 100 µM (inactive)
same,GI50,HCT-116,> 100 µM (inactive)
same,GI50,OVCAR-8,> 100 µM (inactive)
same,GI50,SK-OV-3,> 100 µM (inactive)
same,GI50,NCI-H460,> 100 µM (inactive)
same,GI50,NCI-H23,> 100 µM (inactive)
same,GI50,KM12,> 100 µM (inactive)
same,GI50,M14,> 100 µM (inactive)
same,GI50,SNB-78,> 100 µM (inactive)
same,GI50,UO-31,> 100 µM (inactive)
same,GI50,UACC-62,> 100 µM (inactive)
same,GI50,SR,> 100 µM (inactive)
same,GI50,RXF 393,> 100 µM (inactive)
same,GI50,OVCAR-5,> 100 µM (inactive)
same,GI50,SNB-19,> 100 µM (inactive)
same,GI50,HL-60,> 100 µM (inactive)
same,GI50,IGROV-1,> 100 µM (inactive)
same,GI50,HT-29,> 100 µM (inactive)
same,GI50,U-251,> 100 µM (inactive)
same,GI50,NCI-H226,> 100 µM (inactive)
same,GI50,CCRF-CEM,> 100 µM (inactive)
same,GI50,MOLT-4,> 100 µM (inactive)
same,GI50,KM-20L2,> 100 µM (inactive)
same,GI50,A498,> 100 µM (inactive)
same,GI50,SK-MEL-28,> 100 µM (inactive)
same,GI50,TK-10,> 100 µM (inactive)
same,GI50,HOP-62,> 100 µM (inactive)
same,GI50,UACC-257,> 100 µM (inactive)
CC[C@]1(O)C[C@H]2CN(CCc3c([nH]c4ccccc34)[C@@](C(=O)OC)(c3cc4c(cc3OC)N(C=O)[C@H]3[C@@](O)(C(=O)OC)[C@H](OC(C)=O)[C@]5(CC)C=CCN6CC[C@]43[C@@H]65)C2)C1 [VINCRISTINE SULFATE],GI50,NCI-H522,0.119 µM (active)
same,GI50,DMS-273,0.1 µM (active)
same,GI50,HCT-15,0.137 µM
same,GI50,HOP-92,0.137 µM (active)
same,GI50,M19-MEL,0.142 µM (active)
same,GI50,OVCAR-3,0.125 µM (active)
same,GI50,XF498,0.135 µM (active)
same,GI50,HCT-116,0.132 µM (active)
same,GI50,DLD-1,0.106 µM (active)
same,GI50,SK-OV-3,0.288 µM (active)
same,GI50,NCI-H460,0.105 µM (active)
same,GI50,HOP-18,20.8 µM (inactive)
same,GI50,NCI-H23,0.112 µM (active)
same,GI50,SNB-78,0.163 µM (active)
same,GI50,UO-31,2.1 µM (inactive)
same,GI50,SF-268,0.172 µM (active)
same,GI50,SR,0.1 µM (active)
same,GI50,RXF 393,0.161 µM (active)
same,GI50,SNB-75,0.43 µM (active)
same,GI50,OVCAR-5,22.2 µM (inactive)
same,GI50,COLO 205,0.133 µM (active)
same,GI50,SNB-19,0.131 µM (active)
same,GI50,ACHN,0.176 µM (active)
same,GI50,U-251,0.132 µM (active)
same,GI50,CCRF-CEM,0.131 µM (active)
same,GI50,KM-20L2,0.106 µM (active)
same,GI50,A498,0.126 µM (active)
same,GI50,EKVX,2.36 µM (inactive)
same,GI50,SK-MEL-28,1.31 µM (inactive)
same,GI50,LXFL 529,0.1 µM (active)
same,GI50,Malme-3M,0.333 µM (active)
same,GI50,HOP-62,0.225 µM (active)
same,GI50,DMS-114,0.121 µM (active)
same,GI50,T47D,175 µM (inactive)
same,GI50,SK-MEL-2,0.132 µM (active)
same,GI50,CAKI-1,0.14 µM (active)
O=C1c2ccc3c4ccccc4n(-c4ccccc4)c3c2C(=O)N1c1ccc(Cl)cc1,GI50,NCI-H522,> 100 µM (inactive)
same,GI50,DMS-273,> 100 µM (inactive)
same,GI50,OVCAR-4,> 100 µM (inactive)
same,GI50,HCT-15,> 100 µM
same,GI50,HOP-92,37.3 µM (inactive)
same,GI50,SF-295,> 100 µM (inactive)
same,GI50,A549,> 100 µM (inactive)
same,GI50,RXF 631,> 100 µM (inactive)
same,GI50,M19-MEL,> 100 µM (inactive)
same,GI50,OVCAR-3,> 100 µM (inactive)
same,GI50,HCT-116,> 100 µM (inactive)
same,GI50,DLD-1,> 100 µM (inactive)
same,GI50,OVCAR-8,> 100 µM (inactive)
same,GI50,SK-OV-3,> 100 µM (inactive)
same,GI50,NCI-H460,> 100 µM (inactive)
same,GI50,NCI-H23,8.95 µM (inactive)
same,GI50,KM12,> 100 µM (inactive)
same,GI50,M14,> 100 µM (inactive)
same,GI50,SNB-78,> 100 µM (inactive)
same,GI50,UO-31,> 100 µM (inactive)
same,GI50,UACC-62,> 100 µM (inactive)
same,GI50,SF-268,> 100 µM (inactive)
same,GI50,786-0,> 100 µM (inactive)
same,GI50,SW-620,> 100 µM (inactive)
same,GI50,K562,> 100 µM (inactive)
same,GI50,SR,> 100 µM (inactive)
same,GI50,SN12C,> 100 µM (inactive)
same,GI50,RXF 393,> 100 µM (inactive)
same,GI50,SNB-75,> 100 µM (inactive)
same,GI50,OVCAR-5,> 100 µM (inactive)
same,GI50,COLO 205,> 100 µM (inactive)
same,GI50,SNB-19,> 100 µM (inactive)
same,GI50,HL-60,> 100 µM (inactive)
same,GI50,IGROV-1,> 100 µM (inactive)
same,GI50,ACHN,> 100 µM (inactive)
same,GI50,HT-29,29 µM (inactive)
same,GI50,U-251,> 100 µM (inactive)
same,GI50,NCI-H226,> 100 µM (inactive)
same,GI50,HCC 2998,> 100 µM (inactive)
same,GI50,CCRF-CEM,> 100 µM (inactive)
same,GI50,MOLT-4,> 100 µM (inactive)
same,GI50,KM-20L2,> 100 µM (inactive)
same,GI50,SF-539,> 100 µM (inactive)
same,GI50,A498,> 100 µM (inactive)
same,GI50,LOX IMVI,> 100 µM (inactive)
same,GI50,EKVX,> 100 µM (inactive)
same,GI50,LXFL 529,> 100 µM (inactive)
same,GI50,SK-MEL-5,> 100 µM (inactive)
same,GI50,Malme-3M,> 100 µM (inactive)
same,GI50,TK-10,> 100 µM (inactive)
same,GI50,HOP-62,> 100 µM (inactive)
same,GI50,DMS-114,> 100 µM (inactive)
same,GI50,SK-MEL-2,> 100 µM (inactive)
same,GI50,UACC-257,> 100 µM (inactive)
same,GI50,CAKI-1,> 100 µM (inactive)
COC1CC(C)C(OC)C2=CC(=O)C=C(NC(=O)/C(C)=C/C=C\C(C)C(OC(N)=O)/C(C)=C\C(C)C1OC)C2=O (stereo unspecified),GI50,NCI-H522,0.0908 µM (active)
same,GI50,DMS-273,0.239 µM (active)
same,GI50,OVCAR-4,0.834 µM (active)
same,GI50,HCT-15,1.33 µM
same,GI50,HOP-92,0.313 µM (active)
same,GI50,SF-295,1.07 µM (active)
same,GI50,A549,2.9 µM (inactive)
same,GI50,M19-MEL,0.441 µM (active)
same,GI50,OVCAR-3,0.313 µM (active)
same,GI50,XF498,0.681 µM (active)
same,GI50,HCT-116,0.313 µM (active)
same,GI50,DLD-1,0.804 µM (active)
same,GI50,OVCAR-8,1.67 µM (inactive)
same,GI50,SK-OV-3,0.357 µM (active)
same,GI50,DU-145,0.643 µM (active)
same,GI50,NCI-H460,0.422 µM (active)
same,GI50,HOP-18,0.179 µM (active)
same,GI50,NCI-H23,0.447 µM (active)
same,GI50,KM12,0.521 µM (active)
same,GI50,M14,0.589 µM (active)
same,GI50,SNB-78,1.71 µM (inactive)
same,GI50,UO-31,4.83 µM (inactive)
same,GI50,UACC-62,0.492 µM (active)
same,GI50,SF-268,1.31 µM (inactive)
same,GI50,786-0,0.902 µM (active)
same,GI50,SW-620,0.0485 µM (active)
same,GI50,K562,0.114 µM (active)
same,GI50,SR,0.0682 µM (active)
same,GI50,MDA-MB-435,0.0721 µM (active)
same,GI50,SN12C,0.296 µM (active)
same,GI50,RXF 393,0.337 µM (active)
same,GI50,SNB-75,0.762 µM (active)
same,GI50,OVCAR-5,3.2 µM (inactive)
same,GI50,COLO 205,0.0414 µM (active)
same,GI50,SNB-19,0.495 µM (active)
same,GI50,HL-60,0.182 µM (active)
same,GI50,IGROV-1,2.97 µM (inactive)
same,GI50,ACHN,1.25 µM (inactive)
same,GI50,HT-29,0.244 µM (active)
same,GI50,U-251,0.37 µM (active)
same,GI50,NCI-H226,6.15 µM (inactive)
same,GI50,HCC 2998,0.665 µM (active)
same,GI50,CCRF-CEM,0.117 µM (active)
same,GI50,MOLT-4,0.0535 µM (active)
same,GI50,KM-20L2,0.202 µM (active)
same,GI50,SF-539,0.355 µM (active)
same,GI50,A498,11.7 µM (inactive)
same,GI50,LOX IMVI,0.379 µM (active)
same,GI50,EKVX,11 µM (inactive)
same,GI50,SK-MEL-28,0.166 µM (active)
same,GI50,LXFL 529,0.191 µM (active)
same,GI50,SK-MEL-5,0.804 µM (active)
same,GI50,MCF7,0.0621 µM (active)
same,GI50,Malme-3M,0.334 µM (active)
same,GI50,PC-3,11.5 µM (inactive)
same,GI50,TK-10,2.09 µM (inactive)
same,GI50,HOP-62,1.48 µM (inactive)
same,GI50,DMS-114,0.403 µM (active)
same,GI50,SK-MEL-2,0.525 µM (active)
same,GI50,UACC-257,0.261 µM (active)
same,GI50,CAKI-1,2.52 µM (inactive)
same,GI50,RPMI-8226,0.313 µM (active)
